Like-named read-outs stand apart in the source and are kept apart here.
How the values were obtained:
Experiment in all cases: HotSpot kinase profiling
Format in all cases: biochemical
CDK4/cyclin D3 = target: T1, CDK4/cyclin D3 (Homo sapiens, UniProt P11802)
T1 construct: purchased Reaction Biology Corp
Outline: (§1)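 Percent inhibition, averaged when run more than once and referenced to a DMSO negative control, came from a radioactive filter-binding readout on P81 paper. Reactions of kinase with freshly made substrate and cofactors ran for 2 h at room temperature.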

CK2a2 = target: T2, CK2a2 (Homo sapiens, UniProt P19784)
T2 construct: purchased Reaction Biology Corp
Outline: as §1

GRK4 = target: T3, GRK4 (Homo sapiens, UniProt P32298)
T3 construct: purchased Reaction Biology Corp
Outline: as §1

MSSK1/STK23 = target: T4, MSSK1/STK23 (Homo sapiens, UniProt Q9UPE1)
T4 construct: purchased Reaction Biology Corp
Outline: as §1

MYLK3 = target: T5, MYLK3 (Homo sapiens, UniProt Q32MK0)
T5 construct: purchased Reaction Biology Corp
T5 sequence (Q32MK0 1-819): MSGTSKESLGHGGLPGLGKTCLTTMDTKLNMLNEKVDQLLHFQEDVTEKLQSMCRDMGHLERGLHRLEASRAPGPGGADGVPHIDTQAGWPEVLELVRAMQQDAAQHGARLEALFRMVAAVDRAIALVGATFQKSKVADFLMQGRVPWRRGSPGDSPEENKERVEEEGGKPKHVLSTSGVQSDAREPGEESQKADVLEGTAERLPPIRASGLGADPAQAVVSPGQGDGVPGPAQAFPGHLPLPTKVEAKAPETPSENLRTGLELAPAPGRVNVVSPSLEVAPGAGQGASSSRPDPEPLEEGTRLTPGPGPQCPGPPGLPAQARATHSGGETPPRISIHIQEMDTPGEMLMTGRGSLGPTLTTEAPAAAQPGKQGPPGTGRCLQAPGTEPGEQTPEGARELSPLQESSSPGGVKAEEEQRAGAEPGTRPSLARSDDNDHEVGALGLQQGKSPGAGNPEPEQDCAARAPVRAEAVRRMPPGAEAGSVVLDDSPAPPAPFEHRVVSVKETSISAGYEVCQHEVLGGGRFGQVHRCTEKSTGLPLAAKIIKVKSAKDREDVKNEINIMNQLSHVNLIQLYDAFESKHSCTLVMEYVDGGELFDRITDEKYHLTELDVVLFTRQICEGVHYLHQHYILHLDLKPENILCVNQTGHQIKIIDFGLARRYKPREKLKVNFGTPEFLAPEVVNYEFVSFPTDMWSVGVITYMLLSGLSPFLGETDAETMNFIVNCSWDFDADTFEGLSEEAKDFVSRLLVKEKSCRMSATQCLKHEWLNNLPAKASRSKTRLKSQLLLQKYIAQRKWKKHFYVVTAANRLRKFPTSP
Outline: as §1

RSK4 = target: T6, RSK4 (Homo sapiens, UniProt Q9UK32)
T6 construct: purchased Reaction Biology Corp
Outline: as §1

SGK3/SGKL = target: T7, SGK3/SGKL (Homo sapiens, UniProt Q96BR1)
T7 construct: purchased Reaction Biology Corp
T7 sequence (Q96BR1 1-496): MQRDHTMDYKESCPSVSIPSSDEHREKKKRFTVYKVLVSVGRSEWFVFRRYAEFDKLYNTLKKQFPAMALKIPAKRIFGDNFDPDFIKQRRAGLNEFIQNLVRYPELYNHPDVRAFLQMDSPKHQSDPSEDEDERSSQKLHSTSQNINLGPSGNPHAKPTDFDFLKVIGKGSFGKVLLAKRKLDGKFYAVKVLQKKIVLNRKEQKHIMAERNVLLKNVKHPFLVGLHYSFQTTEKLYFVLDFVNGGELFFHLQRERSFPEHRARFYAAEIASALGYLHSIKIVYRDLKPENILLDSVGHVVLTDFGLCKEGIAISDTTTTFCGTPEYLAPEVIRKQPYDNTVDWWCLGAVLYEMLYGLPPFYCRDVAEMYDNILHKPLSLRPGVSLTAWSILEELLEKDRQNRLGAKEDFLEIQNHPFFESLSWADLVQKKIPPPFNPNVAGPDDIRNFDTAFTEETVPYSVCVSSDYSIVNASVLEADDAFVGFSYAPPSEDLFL
Outline: as §1

STK38/NDR1 = target: T8, STK38/NDR1 (Homo sapiens, UniProt Q15208)
T8 construct: purchased Reaction Biology Corp
Outline: as §1

STK39/STLK3 = target: T9, STK39/STLK3 (Homo sapiens, UniProt Q9UEW8)
T9 construct: purchased Reaction Biology Corp
Outline: as §1

c-Src = target: T10, c-Src (Homo sapiens, UniProt P12931)
T10 construct: purchased Reaction Biology Corp
Outline: as §1

[1] = read-out: % Enzyme Activity (relative to DMSO controls) Run 1
[2] = read-out: % Enzyme Activity (relative to DMSO controls) Run 2

T1 sequence (P11802 whole entry): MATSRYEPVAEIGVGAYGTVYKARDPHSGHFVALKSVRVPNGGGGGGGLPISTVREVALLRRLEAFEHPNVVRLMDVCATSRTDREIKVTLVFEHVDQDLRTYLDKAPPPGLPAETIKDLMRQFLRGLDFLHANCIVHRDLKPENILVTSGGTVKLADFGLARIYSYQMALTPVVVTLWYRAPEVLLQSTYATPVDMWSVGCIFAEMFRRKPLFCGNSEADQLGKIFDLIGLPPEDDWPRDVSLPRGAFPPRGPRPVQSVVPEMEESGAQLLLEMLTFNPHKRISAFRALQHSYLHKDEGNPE
T1 sequence (P30281 whole entry partner): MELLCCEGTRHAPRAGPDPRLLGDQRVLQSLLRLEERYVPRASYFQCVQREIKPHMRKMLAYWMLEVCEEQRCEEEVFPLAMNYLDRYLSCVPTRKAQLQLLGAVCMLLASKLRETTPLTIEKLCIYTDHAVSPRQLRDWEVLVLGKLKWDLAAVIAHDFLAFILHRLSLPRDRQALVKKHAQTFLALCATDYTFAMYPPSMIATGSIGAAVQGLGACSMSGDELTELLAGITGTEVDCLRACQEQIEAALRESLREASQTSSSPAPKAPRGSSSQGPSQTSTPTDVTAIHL
T6 sequence (Q9UK32 whole entry): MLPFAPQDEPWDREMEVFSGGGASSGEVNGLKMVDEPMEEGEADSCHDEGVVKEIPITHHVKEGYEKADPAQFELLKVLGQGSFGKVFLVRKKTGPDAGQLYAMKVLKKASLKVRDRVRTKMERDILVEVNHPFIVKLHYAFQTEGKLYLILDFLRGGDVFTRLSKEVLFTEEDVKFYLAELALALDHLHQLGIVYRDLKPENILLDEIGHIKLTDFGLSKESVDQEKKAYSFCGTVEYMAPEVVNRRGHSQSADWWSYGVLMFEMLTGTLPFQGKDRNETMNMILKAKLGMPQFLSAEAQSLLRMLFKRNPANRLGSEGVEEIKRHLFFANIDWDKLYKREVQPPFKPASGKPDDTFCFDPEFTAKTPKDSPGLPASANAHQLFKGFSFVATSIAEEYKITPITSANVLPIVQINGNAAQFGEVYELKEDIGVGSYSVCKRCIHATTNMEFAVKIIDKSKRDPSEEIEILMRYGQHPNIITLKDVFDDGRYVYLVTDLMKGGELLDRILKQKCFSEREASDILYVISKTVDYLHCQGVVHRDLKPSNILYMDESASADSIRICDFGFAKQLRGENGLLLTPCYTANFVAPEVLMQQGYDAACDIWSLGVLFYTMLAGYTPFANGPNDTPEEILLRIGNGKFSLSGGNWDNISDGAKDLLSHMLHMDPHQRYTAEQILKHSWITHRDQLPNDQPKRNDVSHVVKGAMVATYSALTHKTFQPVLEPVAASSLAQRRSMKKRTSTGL
T8 sequence (Q15208 whole entry): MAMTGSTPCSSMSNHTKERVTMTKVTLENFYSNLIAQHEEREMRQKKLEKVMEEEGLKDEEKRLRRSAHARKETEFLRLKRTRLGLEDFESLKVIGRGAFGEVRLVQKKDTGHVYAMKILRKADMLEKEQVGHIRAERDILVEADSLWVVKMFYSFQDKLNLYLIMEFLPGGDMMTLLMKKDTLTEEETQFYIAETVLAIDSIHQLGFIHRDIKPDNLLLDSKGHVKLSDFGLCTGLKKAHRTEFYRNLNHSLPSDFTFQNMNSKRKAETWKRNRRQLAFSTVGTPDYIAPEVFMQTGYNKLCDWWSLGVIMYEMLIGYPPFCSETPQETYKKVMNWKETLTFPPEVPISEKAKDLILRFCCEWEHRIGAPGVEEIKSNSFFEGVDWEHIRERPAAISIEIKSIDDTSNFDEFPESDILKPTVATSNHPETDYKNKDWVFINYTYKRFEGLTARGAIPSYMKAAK
T10 sequence (P12931 whole entry): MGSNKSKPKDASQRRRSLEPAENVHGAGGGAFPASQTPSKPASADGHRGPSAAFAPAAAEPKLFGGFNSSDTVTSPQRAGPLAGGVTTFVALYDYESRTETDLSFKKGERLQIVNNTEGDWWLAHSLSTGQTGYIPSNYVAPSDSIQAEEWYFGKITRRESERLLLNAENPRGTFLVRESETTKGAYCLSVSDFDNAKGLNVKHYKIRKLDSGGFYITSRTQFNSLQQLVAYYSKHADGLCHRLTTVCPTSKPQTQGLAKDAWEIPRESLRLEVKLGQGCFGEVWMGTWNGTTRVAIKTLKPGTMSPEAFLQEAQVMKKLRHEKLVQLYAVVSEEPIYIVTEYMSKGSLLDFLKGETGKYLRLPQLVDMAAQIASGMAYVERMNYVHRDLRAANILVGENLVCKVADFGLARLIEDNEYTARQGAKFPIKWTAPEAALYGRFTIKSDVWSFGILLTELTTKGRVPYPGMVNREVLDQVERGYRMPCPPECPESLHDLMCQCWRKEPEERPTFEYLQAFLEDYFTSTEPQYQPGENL
T4 sequence (Q9UPE1 whole entry): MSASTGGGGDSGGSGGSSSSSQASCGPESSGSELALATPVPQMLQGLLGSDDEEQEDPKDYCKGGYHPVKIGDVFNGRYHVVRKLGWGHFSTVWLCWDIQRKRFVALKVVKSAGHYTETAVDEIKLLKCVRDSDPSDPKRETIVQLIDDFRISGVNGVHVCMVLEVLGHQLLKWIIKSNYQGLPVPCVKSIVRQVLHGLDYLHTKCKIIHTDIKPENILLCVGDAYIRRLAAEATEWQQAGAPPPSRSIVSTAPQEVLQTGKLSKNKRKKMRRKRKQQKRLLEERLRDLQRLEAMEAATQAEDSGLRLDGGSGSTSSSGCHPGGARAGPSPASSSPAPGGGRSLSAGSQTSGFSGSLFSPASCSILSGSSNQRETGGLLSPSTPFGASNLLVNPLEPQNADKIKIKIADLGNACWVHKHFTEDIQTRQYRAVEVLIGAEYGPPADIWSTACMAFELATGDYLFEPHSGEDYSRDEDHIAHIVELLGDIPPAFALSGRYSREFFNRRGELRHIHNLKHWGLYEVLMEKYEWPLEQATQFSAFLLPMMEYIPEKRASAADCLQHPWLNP
T2 sequence (P19784 whole entry): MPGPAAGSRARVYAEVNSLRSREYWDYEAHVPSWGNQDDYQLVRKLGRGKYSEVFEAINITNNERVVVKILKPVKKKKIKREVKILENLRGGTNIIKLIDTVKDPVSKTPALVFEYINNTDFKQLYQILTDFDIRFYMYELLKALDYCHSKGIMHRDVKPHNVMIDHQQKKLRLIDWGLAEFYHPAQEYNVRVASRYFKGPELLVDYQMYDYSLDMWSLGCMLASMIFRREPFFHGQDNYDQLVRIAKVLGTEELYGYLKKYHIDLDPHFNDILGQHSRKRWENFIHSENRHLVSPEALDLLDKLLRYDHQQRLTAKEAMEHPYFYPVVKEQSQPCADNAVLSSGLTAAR
T3 sequence (P32298 whole entry): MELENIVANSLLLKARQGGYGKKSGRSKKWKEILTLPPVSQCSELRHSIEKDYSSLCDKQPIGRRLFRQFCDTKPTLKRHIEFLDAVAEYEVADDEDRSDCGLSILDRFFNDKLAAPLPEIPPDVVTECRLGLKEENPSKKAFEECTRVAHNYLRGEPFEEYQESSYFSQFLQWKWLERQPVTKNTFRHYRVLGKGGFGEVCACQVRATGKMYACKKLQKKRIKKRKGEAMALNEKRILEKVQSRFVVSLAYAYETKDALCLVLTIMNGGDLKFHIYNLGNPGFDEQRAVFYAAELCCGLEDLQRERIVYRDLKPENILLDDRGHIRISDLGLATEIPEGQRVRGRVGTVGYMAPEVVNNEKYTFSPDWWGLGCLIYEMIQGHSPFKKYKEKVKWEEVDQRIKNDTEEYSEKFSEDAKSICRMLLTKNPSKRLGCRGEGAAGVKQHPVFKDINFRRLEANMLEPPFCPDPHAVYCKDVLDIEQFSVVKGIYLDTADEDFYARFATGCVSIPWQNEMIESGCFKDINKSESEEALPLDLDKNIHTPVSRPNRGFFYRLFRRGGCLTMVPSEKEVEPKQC

`C=CC(=O)Nc1cccc(Nc2nc(Nc3ccc(OCCOC)c(F)c3)ncc2F)c1` [Compound 2] gave an inhibition at 3 µM (CDK4/cyclin D3) of 5.15%, a remaining activity at 3 µM (CDK4/cyclin D3; [1]) of 95.5% and a remaining activity at 3 µM (CDK4/cyclin D3; [2]) of 94.2%. It also gave an inhibition at 3 µM (CK2a2) of -1.81%, a remaining activity at 3 µM (CK2a2; [1]) of 98.2% and a remaining activity at 3 µM (CK2a2; [2]) of 105%. For the same compound, the inhibition at 3 µM (GRK4) was -6.61%, the remaining activity at 3 µM (GRK4; [1]) was 107% and the remaining activity at 3 µM (GRK4; [2]) was 106%. For the same compound, the inhibition at 3 µM (MSSK1/STK23) was -6.62%, the remaining activity at 3 µM (MSSK1/STK23; [1]) was 108% and the remaining activity at 3 µM (MSSK1/STK23; [2]) was 105%. For the same compound, the inhibition at 3 µM (MYLK3) was -15%, the remaining activity at 3 µM (MYLK3; [1]) was 113% and the remaining activity at 3 µM (MYLK3; [2]) was 116%. The inhibition at 3 µM (RSK4) was 22.8%, the remaining activity at 3 µM (RSK4; [1]) was 77.2% and the remaining activity at 3 µM (RSK4; [2]) was 77.2%. It also gave an inhibition at 3 µM (SGK3/SGKL) of -2.42%, a remaining activity at 3 µM (SGK3/SGKL; [1]) of 99.5% and a remaining activity at 3 µM (SGK3/SGKL; [2]) of 105%. The inhibition at 3 µM (STK38/NDR1) was 6.79%, the remaining activity at 3 µM (STK38/NDR1; [1]) was 92.7% and the remaining activity at 3 µM (STK38/NDR1; [2]) was 93.7%. It also gave an inhibition at 3 µM (STK39/STLK3) of 7.74%, a remaining activity at 3 µM (STK39/STLK3; [1]) of 91.6% and a remaining activity at 3 µM (STK39/STLK3; [2]) of 92.9%. For the same compound, the inhibition at 3 µM (c-Src) was 72%, the remaining activity at 3 µM (c-Src; [1]) was 28.2% and the remaining activity at 3 µM (c-Src; [2]) was 27.9%.

— patent US9492471B2, “Methods of treating a disease or disorder associated with Bruton'S Tyrosine Kinase” (Celgene Avilomics Research, Inc., priority 2013, dated 2016)
